Experimental data as given in US20250176599A1, “FLAVOR COMPOSITION AND FOOD AND BEVERAGE” (TAKASAGO INTERNATIONAL CORPORATION, priority 2021, published 2025).

What was measured:
[1] = Sensory evaluation of degradation component-added mayonnaise I (1-octen-3-ol 200 ppb); details: average panel score
Experimental: (§1) To commercially available mayonnaise (“Kewpie Mayonnaise” manufactured by Kewpie Corporation), each degradation component was added to prepare degradation component-added mayonnaises I and II at the concentrations listed in Table 20. To these degradation component-added mayonnaises, oleic acid was added at the concentrations listed in Table 21 to confirm the intensity of the off-flavor (masking effect) and the intensity of the masking components (impact on the flavor of the mayonnaise itself) for each sample.
(§2) Six experienced panelists were selected to conduct a sensory evaluation similar to that of Example 1.

[2] = Sensory evaluation of aqueous solution V containing 1-octen-3-ol 10 ppb: off-flavor intensity and masking component intensity; details: 1-octen-3-ol 10 ppb, average score 0-4
Outline: (§3)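 Nootkatone was added to ion-exchanged water spiked with the degradation component, and eight experienced panelists scored the samples. Off-flavor was rated relative to anchors: unmasked spiked solution = 4, plain water = 0. Masking-component intensity was rated absolutely on a 0–4 scale.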

[3] = Sensory evaluation of aqueous solution II containing (E)-2-octenal 10 ppb: off-flavor intensity and masking component intensity; details: (E)-2-octenal 10 ppb, average score 0-4
Outline: as §3

[4] = Sensory evaluation of aqueous solution IV containing 1,5-octadien-3-one 100 ppt: off-flavor intensity and masking component intensity; details: aqueous solution IV, 1,5-octadien-3-one 100 ppt, average score 0-4
Outline: as §3

[5] = Overall conclusion of the sensory evaluation across aqueous solutions I to VI
Outline: as §3

[6] = Overall conclusion of the sensory evaluation across mayonnaises I and II
Experimental: as §1, §2

[7] = Sensory evaluation of aqueous solution VI containing 1,5-octadien-3-ol 10 ppb: off-flavor intensity and masking component intensity; details: aqueous solution VI, 1,5-octadien-3-ol 10 ppb, average score 0-4
Outline: as §3

[8] = Sensory evaluation of aqueous solution I containing (E)-2-nonenal 1 ppb: off-flavor intensity and masking component intensity; details: (E)-2-nonenal 1 ppb, average score 0-4
Outline: as §3

[9] = Sensory evaluation of aqueous solution III containing 1-octen-3-one 1 ppb: off-flavor intensity and masking component intensity; details: 1-octen-3-one 1 ppb, average score 0-4
Outline: as §3

CCCCCCCC/C=C\CCCCCCCC(=O)O [Oleic Acid, oleic acid]
Masking Component Intensity ([1]; 1 ppm added): 0.3 | Off-Flavor Intensity ([1]; 1 ppm added): 1.8 | Masking Component Intensity ([1]; 5 ppm added): 0.7 | Off-Flavor Intensity ([1]; 5 ppm added): 1.7 | Masking Component Intensity ([1]; 10 ppm added): 0.8 | Off-Flavor Intensity ([1]; 10 ppm added): 1.2 | Masking Component Intensity ([1]; 50 ppm added): 1.7 | Off-Flavor Intensity ([1]; 50 ppm added): 0.8 | Masking Component Intensity ([1]; 100 ppb added): 0.0 | Off-Flavor Intensity ([1]; 100 ppb added): 3.3 | Masking Component Intensity ([1]; 100 ppm added): 2.2 | Off-Flavor Intensity ([1]; 100 ppm added): 0.5 | Masking Component Intensity ([1]; 500 ppb added): 0.2 | Off-Flavor Intensity ([1]; 500 ppb added): 2.5 | Off-Flavor Intensity ([2]; 1 ppm added): 1.9 points | Off-Flavor Intensity ([2]; 5 ppm added): 1.8 points | Off-Flavor Intensity ([2]; 10 ppb added): 3.4 points | Off-Flavor Intensity ([2]; 10 ppm added): 1.1 points | Off-Flavor Intensity ([2]; 50 ppb added): 2.6 points | Off-Flavor Intensity ([2]; 100 ppb added): 2.9 points | Off-Flavor Intensity ([2]; 500 ppb added): 2.3 points | Off-Flavor Intensity ([3]; 1 ppm added): 1.6 points | Off-Flavor Intensity ([3]; 5 ppm added): 1.1 points | Off-Flavor Intensity ([3]; 10 ppb added): 2.8 points | Off-Flavor Intensity ([3]; 10 ppm added): 1.1 points | Off-Flavor Intensity ([3]; 50 ppb added): 2.5 points | Off-Flavor Intensity ([3]; 100 ppb added): 1.9 points | Off-Flavor Intensity ([3]; 500 ppb added): 1.5 points | Off-Flavor Intensity ([4]; 1 ppm added): 2.0 points | Off-Flavor Intensity ([4]; 5 ppm added): 1.9 points | Off-Flavor Intensity ([4]; 10 ppb added): 3.4 points | Off-Flavor Intensity ([4]; 10 ppm added): 1.5 points | Off-Flavor Intensity ([4]; 50 ppb added): 3.3 points | Off-Flavor Intensity ([4]; 100 ppb added): 2.9 points | Off-Flavor Intensity ([4]; 500 ppb added): 2.5 points | concentration that masks the off-flavor and does not affect the flavor of the food and/or beverage itself, lower limit [5]: ≥ 10 ppb | concentration that masks the off-flavor and does not affect the flavor of the food and/or beverage itself, upper limit [5]: ≤ 10 ppm | concentration that masks the off-flavor and does not affect the flavor of the mayonnaise itself, lower limit [6]: ≥ 500 ppb | concentration that masks the off-flavor and does not affect the flavor of the mayonnaise itself, upper limit [6]: ≤ 100 ppm | Off-Flavor Intensity ([7]; 1 ppm added): 1.3 points | Off-Flavor Intensity ([7]; 5 ppm added): 1.5 points | Off-Flavor Intensity ([7]; 10 ppb added): 2.6 points | Off-Flavor Intensity ([7]; 10 ppm added): 1.3 points | Off-Flavor Intensity ([7]; 50 ppb added): 2.4 points | Off-Flavor Intensity ([7]; 100 ppb added): 1.9 points | Off-Flavor Intensity ([7]; 500 ppb added): 1.6 points | Off-Flavor Intensity ([8]; 1 ppm added): 1.8 points | Off-Flavor Intensity ([8]; 5 ppm added): 1.4 points | Off-Flavor Intensity ([8]; 10 ppb added): 3.5 points | Off-Flavor Intensity ([8]; 10 ppm added): 1.3 points | Off-Flavor Intensity ([8]; 50 ppb added): 3.1 points | Off-Flavor Intensity ([8]; 100 ppb added): 2.8 points | Off-Flavor Intensity ([8]; 500 ppb added): 2.4 points | Off-Flavor Intensity ([9]; 1 ppm added): 2.8 points | Off-Flavor Intensity ([9]; 5 ppm added): 2.4 points | Off-Flavor Intensity ([9]; 10 ppb added): 3.5 points | Off-Flavor Intensity ([9]; 10 ppm added): 1.9 points | Off-Flavor Intensity ([9]; 50 ppb added): 3.4 points | Off-Flavor Intensity ([9]; 100 ppb added): 3.3 points | Off-Flavor Intensity ([9]; 500 ppb added): 2.5 points
